In patent US9321737B2, “CDK8-CDK19 selective inhibitors and their use in anti-metastatic and chemopreventative methods for cancer” (SENEX BIOTECHNOLOGY INC, priority 2012, dated 2016):

Experiments:
[1] = tested on: CDKI pathway (CMV promoter stimulation by p21) in HT1080 fibrosarcoma cells; assay: CDKI pathway inhibition cellular assay (CMV-GFP induction by IPTG-inducible p21); assay type: cell-based, human; settings: for activity in cell-based CDKI pathway assay: CMV-GFP
Method: The compounds described below are shown in Table 1 and the structures of some novel compounds according to the invention are shown in FIG. 1. […] All the compounds were tested for the ability to inhibit the CDKI pathway in a cellular assay described in our previous patent application PCT/US06/01046. This assay is based on the induction of green fluorescent protein (GFP) expression from the cytomegalovirus (CMV) promoter in human HT1080 fibrosarcoma cells that express CDKI p21 from an isopropyl-β-thio-galactoside (IPTG)-inducible promoter. The compound activity as a CDKI pathway inhibitor is measured by its ability to prevent the stimulation of the CMV promoter upon the addition of p21-inducing IPTG. CMV promoter activity is measured by the ratio of GFP fluorescence to the relative cell number, as determined by staining cellular DNA with Hoechst 33342.

[2] = Solubility in 20% propylene glycol; assay type: physicochemical
Method: (§1) The compounds were also tested for solubility in 20% propylene glycol and in water, as follows. Compounds (dry powder) were dissolved in 20% propylene glycol at a concentration of 1 mM at a temperature of 40° C. with occasional vortexing. After 30 min, the solution was centrifuged at 10,000×g for 5 min. Serial dilutions of the cleared supernatant were prepared and used to measure the compound concentrations through OD reading, relative to 1 μM standard solution of the same compound. The results of the measurement were expressed as % solubility of the compound at 1 mM in 20% propylene glycol. To determine water solubility, the compounds (dry powder) were initially dissolved in water at a concentration of 100 mM at a temperature of 40° C. with occasional vortexing. After 30 min, the solution was centrifuged at 10,000×g for 5 min, and the formation of an insoluble pellet was monitored. At subsequent steps, the compound was attempted to be dissolved at lower concentrations, until no pellet was observed after centrifugation, indicating complete solution of the compound.

Water solubility = assay type: physicochemical; settings: 40° C., 30 min, no pellet after centrifugation
Method: as §1

CDK8 [3] = biological target: T1, CDK8 (Homo sapiens, UniProt P49336); assay: KinomeScan ATP pocket binding inhibition, CDK8; settings: 2,000 nM
T1 sequence (P49336 whole entry): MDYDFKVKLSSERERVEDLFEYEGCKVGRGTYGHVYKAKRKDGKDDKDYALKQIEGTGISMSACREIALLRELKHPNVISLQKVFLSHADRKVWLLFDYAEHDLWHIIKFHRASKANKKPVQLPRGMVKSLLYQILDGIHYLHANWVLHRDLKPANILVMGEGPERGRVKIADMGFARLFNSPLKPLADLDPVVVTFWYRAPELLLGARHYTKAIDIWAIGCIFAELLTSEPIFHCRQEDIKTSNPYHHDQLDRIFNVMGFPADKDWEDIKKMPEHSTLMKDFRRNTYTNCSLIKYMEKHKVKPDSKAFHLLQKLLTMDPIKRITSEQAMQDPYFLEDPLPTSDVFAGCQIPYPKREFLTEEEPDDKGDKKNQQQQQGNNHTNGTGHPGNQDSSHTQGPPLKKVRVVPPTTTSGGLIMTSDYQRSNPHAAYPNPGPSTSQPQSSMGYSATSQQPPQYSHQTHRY
Description: (§2) (16) The results of this analysis are presented in FIGS. 6A-B in the form of an evolutionary dendrogram of the kinase family, where kinase inhibition is represented by red circles, the size of which represents the magnitude of the inhibition.

MAP4K2 = biological target: T2, MAP4K2 (Homo sapiens, UniProt Q12851); assay: KinomeScan ATP pocket binding inhibition, MAP4K2; settings: 2,000 nM
T2 construct: purchased KinomeScan, a division of Ambit Biosciences
T2 sequence (Q12851 1-820): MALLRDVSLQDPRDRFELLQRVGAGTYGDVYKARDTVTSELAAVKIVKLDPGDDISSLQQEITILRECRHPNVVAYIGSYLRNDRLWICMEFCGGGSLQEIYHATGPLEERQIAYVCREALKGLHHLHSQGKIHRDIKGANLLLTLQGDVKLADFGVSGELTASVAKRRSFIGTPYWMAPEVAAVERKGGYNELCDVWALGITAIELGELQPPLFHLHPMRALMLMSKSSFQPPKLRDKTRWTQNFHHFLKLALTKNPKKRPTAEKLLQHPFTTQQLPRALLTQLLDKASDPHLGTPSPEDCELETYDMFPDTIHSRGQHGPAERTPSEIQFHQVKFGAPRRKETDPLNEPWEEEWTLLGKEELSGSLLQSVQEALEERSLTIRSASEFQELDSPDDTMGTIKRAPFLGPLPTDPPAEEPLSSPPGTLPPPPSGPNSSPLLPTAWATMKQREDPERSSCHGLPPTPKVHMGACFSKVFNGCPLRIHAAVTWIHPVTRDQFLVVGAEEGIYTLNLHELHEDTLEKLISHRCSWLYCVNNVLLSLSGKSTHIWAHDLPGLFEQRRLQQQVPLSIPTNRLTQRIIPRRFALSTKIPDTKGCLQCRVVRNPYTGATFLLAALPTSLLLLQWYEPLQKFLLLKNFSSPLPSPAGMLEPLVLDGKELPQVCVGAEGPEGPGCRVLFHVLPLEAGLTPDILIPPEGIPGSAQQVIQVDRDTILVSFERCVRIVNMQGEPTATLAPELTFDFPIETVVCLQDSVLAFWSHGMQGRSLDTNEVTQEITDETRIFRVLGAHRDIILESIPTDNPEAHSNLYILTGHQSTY
Description: as §2

>450 kinases = assay: KinomeScan ATP pocket binding inhibition, rest of panel; settings: 2,000 nM
Description: as §2

[4] = Pharmacokinetics in rat plasma; assay type: in vivo; settings: i.p. 40 mg/kg
[5] = Pharmacokinetics in mouse plasma (gavage); assay type: in vivo; settings: mice, gavage 100 mg/kg
[6] = 12-day animal toxicity study; assay type: in vivo, Balb/c mice; settings: 40 mg/kg i.p.
MDA-MB-157 = assay: Breast carcinoma cell growth, MTT, MDA-MB-157; assay type: cell-based; settings: five days
CDK8 [7] = biological target: T1, CDK8; assay: In vitro CDK8 kinase activity inhibition (ProQinase assay kit); settings: read-out: IC50, inhibition of CDK8 kinase activity, different assays

## CN1CCN(C(=O)c2ccc3cc(CCNc4ncnc5ccc(C#N)cc45)ccc3c2)CC1 [SNX2-1-165]
[1]; IPTG-inducible p21
  activity in cell-based CDKI pathway assay: more active than any of the previously developed SNX2-class compounds
[1]; IPTG-inducible p21, listed as Senexin B
  activity in cell-based CDKI pathway assay: potently inhibited
[1]; IPTG-induced p21, CMV-GFP / Hoechst 33342, read-out: Cell-based Assay EC50
  EC50: 530 nM
[2]; 1 mM, 40° C., 30 min, centrifuged, OD reading
  % solubility at 1 mM in 20% propylene glycol: 100%
[2]; at 1 mM
  solubility in 20% propylene glycol: fully soluble
Water solubility
  Water Solubility: ≥ 50 mM
Water solubility; listed as 165
  Water Solubility: Soluble at 50 mM
CDK8 [3]
  % inhibition of CDK8: 97.8%
MAP4K2
  % inhibition of MAP4K2: 69%
>450 kinases
  % inhibition of all other kinases in the panel: ≤ 50%
[4]
  area under the curve (AUC): 14100 ng·h/mL
[5]
  oral availability: orally available
  peak plasma concentrations: ~50 µM
[6]; 5 daily doses, 2-day break
  body weight gains at end of study: indistinguishable from the carrier-treated mice
[6]; 12-day study
  decrease in lymphocytes (blood counts): ~25%
  spleen weight decrease: ~20%
[6]; 12-day study, relative to control mice
  blood counts, other cell types: no changes
MDA-MB-157
  growth inhibition, MDA-MB-157: dose-dependent growth inhibition
CDK8 [7]
  IC50: 24 to 50 nM
